Measurements as given in patent US9920012B2, “Indazole guanidine F1F0-ATPase inhibitors and therapeutic uses thereof” (Lycera Corporation, priority 2012, dated 2018).
Where two headings read alike, the source gives them in different places.

What was measured:
F1F0-ATPase = target: T1, F1F0-ATPase (Bos taurus, UniProt P13621); experiment: Inhibition of F1F0-ATPase activity in synthesizing ATP; format: biochemical; details: inhibition of ATP synthesis; detection limit IC50=16 μM; read-out: ATP Syn IC50
T1 construct: from tissue
Description: (§1) Exemplary compounds described in above Examples were tested for activity against F1F0-ATPase by measuring the ability of the compounds to inhibit ATP synthesis. In addition, the compounds were assessed for cytotoxicity in Ramos cells. Inhibition of F1F0-ATPase activity in synthesizing ATP and cytotoxicity in Ramos cells were measured according to the procedures described in K. M. Johnson et al. Chemistry & Biology 2005, 12, 485-496.

Ramos cells = experiment: Cytotoxicity in Ramos cells; format: cell-based; details: detection limit EC50=16 μM, read-out: Ramos Cell EC50
Description: as §1

| SMILES | IC50 (F1F0-ATPase) | EC50 (Ramos cells; Homo sapiens) | EC50 (Ramos cells) |
| --- | --- | --- | --- |
| COC[C@H](C)N/C(=N/C(=O)c1ccc(Cl)cc1)Nc1nn(C)c2cc(C(F)(F)F)ccc12 [Compound A-115] | > 16 µM | > 16 µM |  |
| COC[C@H](C)N/C(=N/C(=O)c1ccc(Cl)cc1)Nc1n[nH]c2cc(C(F)(F)F)ccc12 [Compound A-66] | < 5 µM |  | < 5 µM |
| CC1(N/C(=N/C(=O)c2ccc(Cl)cc2)Nc2n[nH]c3ccccc23)CCC1 [Compound A-1] | < 5 µM | 5 to 16 µM |  |
| CC(C)(C)N/C(=N/C(=O)c1ccc(F)c(F)c1)Nc1n[nH]c2cncc(Cl)c12 [Compound A-40] | < 5 µM |  | < 5 µM |
| COCC(C)NC(=NC(=O)c1ccc(F)c(F)c1)Nc1n[nH]c2c(Cl)cccc12 (stereo not shown) [Compound A-84] | 5 to 16 µM | > 16 µM |  |
| CC(C)CN/C(=N/C(=O)c1ccc(Cl)c(F)c1)Nc1n[nH]c2cc(C(F)(F)F)ccc12 [Compound A-14] | < 5 µM |  | < 5 µM |
| COC[C@H](C)N/C(=N/C(=O)c1ccc(F)c(F)c1)Nc1n[nH]c2cc(C(F)(F)F)ccc12 [Compound 3, (S)-3,4-Difluoro-N-(((1-methoxypropan-2-yl)amino)((6-(trifluoromethyl)-1H-indazol-3-yl)amino)methylene)benzamide] | < 5 µM | < 5 µM |  |
| O=C(/N=C(\Nc1n[nH]c2cc(C(F)(F)F)ccc12)NC1CCOCC1)c1ccc(Cl)c(F)c1 [Compound A-21] | < 5 µM | 5 to 16 µM |  |
| CCOCCN/C(=N/C(=O)c1ccc(F)c(F)c1)Nc1n[nH]c2ccccc12 [Compound A-38] | > 16 µM |  | > 16 µM |
| CC(C)(C)N/C(=N/C(=O)c1cccc(O)c1)Nc1n[nH]c2cc(F)ccc12 [Compound A-96] | < 5 µM |  | < 5 µM |
| CC(C)(C)N/C(=N/C(=O)c1ccc(O)cc1)Nc1n[nH]c2cc(F)ccc12 [Compound A-92] | 5 to 16 µM |  | < 5 µM |
| CC(C)CN/C(=N/C(=O)c1ccc(F)c(F)c1)Nc1n[nH]c2cc(Cl)ccc12 [Compound A-31] | < 5 µM |  | < 5 µM |
| COC[C@H](C)N/C(=N/C(=O)c1ccc(F)c(F)c1)Nc1n[nH]c2cncc(F)c12 [Compound A-33] | > 16 µM |  | > 16 µM |
| CC(C)CNC(=NC(=O)c1ccc(F)c(F)c1)Nc1n[nH]c2c(F)cccc12 [Compound A-73] | 5 to 16 µM |  | < 5 µM |
| CC(C)N/C(=N/C(=O)c1ccc(F)c(F)c1)Nc1n[nH]c2c(F)cccc12 [Compound A-76] | < 5 µM |  | < 5 µM |
| CC(C)(C)N/C(=N/C(=O)c1ccc(F)c(F)c1)Nc1n[nH]c2ccc(F)cc12 [Compound A-3] | < 5 µM |  | 5 to 16 µM |
| COCC(C)NC(=NC(=O)c1cccc(Cl)c1)Nc1n[nH]c2cc(F)ccc12 (stereo not shown) [Compound A-85] | < 5 µM | > 16 µM |  |
| CC(C)(C)CN/C(=N/C(=O)c1ccc(F)c(F)c1)Nc1n[nH]c2cncc(Cl)c12 [Compound A-42] | < 5 µM |  | 5 to 16 µM |
| CC(C)(C)NC(=NC(=O)c1ccc(F)c(F)c1)Nc1n[nH]c2cc(Cl)c(F)cc12 [Compound A-100] | < 5 µM |  | < 5 µM |
| CC(C)(O)CN/C(=N/C(=O)c1ccc(O)cc1)Nc1n[nH]c2cc(F)ccc12 [Compound A-90] | > 16 µM |  | > 16 µM |

| SMILES | IC50 (F1F0-ATPase) | EC50 (Ramos cells; Homo sapiens) | EC50 (Ramos cells) |
| --- | --- | --- | --- |
| O=C(/N=C(\Nc1n[nH]c2cc(C(F)(F)F)ccc12)NC1CCCC1)c1ccc(Cl)c(F)c1 [Compound A-19] | < 5 µM | < 5 µM |  |
| CC(C)(O)CN/C(=N/C(=O)c1cccc(Cl)c1)Nc1n[nH]c2cc(F)ccc12 [Compound A-87] | > 16 µM |  | > 16 µM |
| COC[C@H](C)NC(=NC(=O)c1ccc(F)c(F)c1)Nc1n[nH]c2cc(Cl)c(F)cc12 [Compound A-103] | < 5 µM |  | < 5 µM |
| CC(C)CNC(=NC(=O)c1ccc(F)c(F)c1)Nc1n[nH]c2cc(Cl)c(F)cc12 [Compound A-101] | < 5 µM |  | < 5 µM |
| CCOCCN/C(=N/C(=O)c1ccc(F)c(F)c1)Nc1n[nH]c2cc(C(F)(F)F)ccc12 [Compound A-12] | < 5 µM |  | < 5 µM |
| CC(C)(C)N/C(=N/C(=O)c1ccc(F)c(F)c1)Nc1n[nH]c2c(F)cccc12 [Compound A-72] | 5 to 16 µM |  | < 5 µM |
| COC[C@H](C)N/C(=N/C(=O)c1ccc(F)c(F)c1)Nc1nn(C)c2cc(C(F)(F)F)ccc12 [Compound A-114] | > 16 µM | > 16 µM |  |
| O=C(/N=C(/Nc1cc(F)cc(Cl)c1)Nc1n[nH]c2ccc(F)cc12)c1ccc(F)c(F)c1 [Compound A-112] | < 5 µM | < 5 µM |  |
| CC(C)CN/C(=N/C(=O)c1ccc(F)c(F)c1)Nc1n[nH]c2cc(C(F)(F)F)ccc12 [Compound A-8] | < 5 µM |  | < 5 µM |
| CCOCCN/C(=N/C(=O)c1cccc(Cl)c1)Nc1n[nH]c2cc(F)ccc12 [Compound A-86] | > 16 µM |  | 5 to 16 µM |
| CCOCCNC(=NC(=O)c1ccc(Cl)cc1)Nc1n[nH]c2cc(C(F)(F)F)ccc12 [Compound A-65] | < 5 µM | < 5 µM |  |
| COC[C@H](C)N/C(=N/C(=O)c1cccc(O)c1)Nc1n[nH]c2cc(F)ccc12 [Compound A-93] | 5 to 16 µM |  | 5 to 16 µM |
| COC[C@H](C)N/C(=N/C(=O)c1ccc(F)c(F)c1)Nc1n[nH]c2cc(C(F)(F)F)ccc12 [Compound A-88] | > 16 µM |  | < 5 µM |
| COC[C@H](C)NC(=NC(=O)c1cccc(Cl)c1)Nc1n[nH]c2cc(Cl)c(F)cc12 [Compound A-107] | < 5 µM |  | < 5 µM |
| COC[C@H](C)N/C(=N/C(=O)c1ccc(Cl)cc1)Nc1n[nH]c2cc(F)ccc12 [Compound A-80] | < 5 µM |  | < 5 µM |
| CC(C)CNC(=NC(=O)c1ccc(F)c(F)c1)Nc1n[nH]c2c(C(F)(F)F)cccc12 [Compound A-58] | 5 to 16 µM | 5 to 16 µM |  |
| CC(C)N/C(=N/C(=O)c1cccc(F)c1)Nc1n[nH]c2ccc(C(F)(F)F)cc12 [Compound A-2] | < 5 µM |  | > 16 µM |
| CC(C)(C)N/C(=N/C(=O)c1ccc(F)c(F)c1)Nc1n[nH]c2ncccc12 [Compound A-69] | > 16 µM |  | > 16 µM |
| COC[C@H](C)N/C(=N/C(=O)c1ccc(O)cc1)Nc1n[nH]c2cc(F)ccc12 [Compound A-89] | 5 to 16 µM |  | 5 to 16 µM |
| CC(C)(O)CN/C(=N/C(=O)c1cccc(O)c1)Nc1n[nH]c2cc(F)ccc12 [Compound A-94] | > 16 µM |  | 5 to 16 µM |

| SMILES | IC50 (F1F0-ATPase) | EC50 (Ramos cells; Homo sapiens) | EC50 (Ramos cells) |
| --- | --- | --- | --- |
| CC(C)(C)N/C(=N/C(=O)c1ccc(C(F)(F)F)cc1)Nc1n[nH]c2ncccc12 [Compound A-62] | > 16 µM |  | > 16 µM |
| CC(C)(C)N/C(=N/C(=O)c1ccc(F)c(F)c1)Nc1n[nH]c2cccc(F)c12 [Compound A-5] | < 5 µM |  | < 5 µM |
| CC(C)CN/C(=N/C(=O)c1ccc(F)c(F)c1)Nc1n[nH]c2ccc(F)cc12 [Compound A-4] | < 5 µM |  | 5 to 16 µM |
| CCOCCN/C(=N/C(=O)c1ccc(F)c(F)c1)Nc1n[nH]c2cncc(Cl)c12 [Compound A-44] | > 16 µM |  | > 16 µM |
| COC[C@H](C)N/C(=N/C(=O)c1ccc(F)c(F)c1)Nc1n[nH]c2ccc(C(F)(F)F)cc12 [Compound A-53] | < 5 µM |  | > 16 µM |
| CC(C)(C)N/C(=N/C(=O)c1ccc(F)c(F)c1)Nc1n[nH]c2ccccc12 [Compound A-34] | 5 to 16 µM |  | 5 to 16 µM |
| CC(C)CNC(=NC(=O)c1ccc(O)cc1)Nc1n[nH]c2cc(F)ccc12 [Compound A-109] | 5 to 16 µM |  | 5 to 16 µM |
| CCOCCN/C(=N/C(=O)c1ccc(F)c(F)c1)Nc1n[nH]c2c(F)cccc12 [Compound A-75] | > 16 µM |  | > 16 µM |
| COC[C@H](C)N/C(=N/C(=O)c1ccc(Cl)c(F)c1)Nc1n[nH]c2cc(C(F)(F)F)ccc12 [Compound A-17] | < 5 µM |  | > 16 µM |
| CCOCCCNC(=NC(=O)c1ccc(F)c(F)c1)Nc1n[nH]c2cc(C(F)(F)F)ccc12 [Compound A-11] | < 5 µM |  | < 5 µM |
| CC(C)(C)NC(=NC(=O)c1cccc(Cl)c1)Nc1n[nH]c2cc(F)ccc12 [Compound A-97] | < 5 µM |  | < 5 µM |
| CCOCCN/C(=N/C(=O)c1ccc(F)c(F)c1)Nc1n[nH]c2cccnc12 [Compound A-49] | > 16 µM |  | > 16 µM |
| CC(C)(C)CNC(=NC(=O)c1ccc(N2CCOCC2)nc1)Nc1n[nH]c2cc(C(F)(F)F)ccc12 [Compound A-27] | < 5 µM | > 16 µM |  |
| CCOCCN/C(=N/C(=O)c1ccc2nonc2c1)Nc1n[nH]c2cc(F)ccc12 [Compound A-30] | > 16 µM |  | > 16 µM |
| CC(C)CNC(=NC(=O)c1cccc(Cl)c1)Nc1n[nH]c2cc(F)ccc12 [Compound A-98] | < 5 µM |  | < 5 µM |
| COC[C@H](C)N/C(=N/C(=O)c1cccc(Cl)c1)Nc1n[nH]c2cc(Cl)ccc12 [Compound A-78] | < 5 µM |  | < 5 µM |
| CC(C)CN/C(=N/C(=O)c1ccc(F)c(F)c1)Nc1n[nH]c2ccc(C(F)(F)F)cc12 [Compound A-51] | < 5 µM |  | < 5 µM |
| COC[C@H](C)N/C(=N/C(=O)c1ccc(F)c(F)c1)Nc1n[nH]c2c(F)cccc12 [Compound A-74] | 5 to 16 µM |  | 5 to 16 µM |
| CC(C)(O)CN/C(=N/C(=O)c1ccc(Cl)cc1)Nc1n[nH]c2cc(F)ccc12 [Compound 2, 4-Chloro-N-((6-fluoro-1H-indazol-3-ylamino)((2-hydroxy-2-methylpropyl)amino)methylene)benzamide] | < 5 µM | > 16 µM |  |
